{"source": "patent US20250222050A1", "about": "“Chlorella and Corn Leaf Extract Compositions, Their Production, and Methods of Use” (Unigen, Inc., priority 2024, published 2025)", "assay_type_in_all_cases": "in vivo", "key": {"BALB/C mice [1]": {"system": "BALB/C mice", "test": "60-minute direct effect (direct sleep) test, no pentobarbital", "description": "Purpose bred BALB/C mice (n=405; male, 20 g-22 g) were purchased from Beijing Hua Fukang biological technologies Inc (Beijing, China). The study was carried out at Testing Center for the functions of Health Foods, College of Arts and science of Beijing Union University (Beijing, China). Mice were kept in specific pathogen free, temperature-controlled room and fed with rodent diet purchased from Beijing Hua Fukang biological technologies Inc (Beijing, China). Three consecutive studies were carried out. Mice were randomly assigned into 9 groups for each experiment. Fifteen mice were allocated in each group. The first experiment was set to determine the sleep incidence effect of test materials. The second experiment was designed to detect the total sleep time under the hypnotic subthreshold dose of pentobarbital sodium (Lot #: 34E10320, Beijing Dingguo Changsheng Biotechnology Co. Ltd). The third experiment was set to detect sleep latency induced by barbital sodium (Lot #: 527B051, Merck).\nZea mays (corn) leaf extract standardized at not less than 0.2% 6-MBOA (Lot #: FP210105-01) and Chlorella Powder (Lot #: 222A) were suspended with sterile water. Melatonin purchased from By-Health Co. Ltd. (Beijing, China) was used as a reference compound in each study. All mice were orally administrated with test materials in a volume of 20 mL/kg BW/day. Study lasted for 31 days. […]"}, "BALB/C mice [2]": {"system": "BALB/C mice", "test": "Sleep latency induced by barbital sodium", "protocol": "Purpose bred BALB/C mice (n=405; male, 20 g-22 g) were purchased from Beijing Hua Fukang biological technologies Inc (Beijing, China). The study was carried out at Testing Center for the functions of Health Foods, College of Arts and science of Beijing Union University (Beijing, China). Mice were kept in specific pathogen free, temperature-controlled room and fed with rodent diet purchased from Beijing Hua Fukang biological technologies Inc (Beijing, China). Three consecutive studies were carried out. Mice were randomly assigned into 9 groups for each experiment. Fifteen mice were allocated in each group. […] The third experiment was set to detect sleep latency induced by barbital sodium (Lot #: 527B051, Merck).\nMice were intraperitoneally injected with 240 mg/kg barbital sodium (0.2 mL/20 g body weight), 15 min after the last test material administration. Sleep latency was recorded and the difference in sleep time between the tested substance groups and vehicle control were determined. […]"}, "BALB/C mice [3]": {"system": "BALB/C mice", "test": "Sleep incidence under hypnotic subthreshold dose of pentobarbital", "settings": "mice n=15, oral 1 mg/kg; 32 mg/kg pentobarbital i.p. 15 min after last dose", "protocol": "The numbers of mice that lost turnover to the right side over 1 min following injection of pentobarbital were recorded. The incidence of sleeping mice was analyzed to compare the difference between the tested substance groups and vehicle control. All the experiments were conducted at night."}, "BALB/C mice [4]": {"system": "BALB/C mice", "test": "Sleep time (duration) after pentobarbital sodium", "settings": "oral 1 mg/kg, 46 mg/kg pentobarbital sodium i.p. 15 min after last dose", "protocol": "Purpose bred BALB/C mice (n=405; male, 20 g-22 g) were purchased from Beijing Hua Fukang biological technologies Inc (Beijing, China). […] Mice were kept in specific pathogen free, temperature-controlled room and fed with rodent diet purchased from Beijing Hua Fukang biological technologies Inc (Beijing, China). Three consecutive studies were carried out. Mice were randomly assigned into 9 groups for each experiment. Fifteen mice were allocated in each group.\nThe amount of time spent sleeping was determined by injecting mice with 46 mg/kg pentobarbital sodium, intraperitoneally, 15 minutes after administration of the last dose of the test materials. The sleep time of each mouse was recorded and the difference of sleep time between tested materials and vehicle control were analyzed."}}}
{"smiles": "COc1ccc2[nH]cc(CCNC(C)=O)c2c1", "note": "[Melatonin]", "values": [{"measurement": "Numbers of sleeping", "setting": "BALB/C mice [1]; mice n=15, oral 1 mg/kg, 1 h after administration", "result": 0}, {"measurement": "Sleep Time", "setting": "BALB/C mice [1]; mice, oral 1 mg/kg", "result": 0, "unit": "min"}, {"measurement": "sleep latency versus vehicle control (in words)", "setting": "BALB/C mice [2]; melatonin 1 mg/kg, chlorella 5,000 mg/kg, combination 250 + 5,000 mg/kg", "result": "significantly shortened"}, {"measurement": "Latent Time (sleep onset latency)", "setting": "BALB/C mice [2]; mice, oral 1 mg/kg, 240 mg/kg barbital sodium i.p. 15 min after last dose", "result": "37.8 ± 12.8", "unit": "min"}, {"measurement": "Incidence (sleep incidence)", "setting": "BALB/C mice [3]", "result": 60, "unit": "%"}, {"measurement": "Sleep Time (sleep duration)", "setting": "BALB/C mice [4]", "result": "59.7 ± 13.0", "unit": "min"}]}
